Experimental data published in ChEMBL document CHEMBL1153254, “Vasorelaxant activity of 2-substituted 6-nitro-2H-1-benzopyran-4-carbothioamide K+ channel openers” (Bioorg Med Chem Lett, 1993).

Experiments:
Rattus norvegicus [1] = species: Rattus norvegicus; assay: Negative logarithm of the molar concentration required to relax rat aorta precontracted with 30 mM KCl by 50% of intrinsic activity; format: functional; conditions: for EC50: Rattus norvegicus, Aorta
Rattus norvegicus [2] = species: Rattus norvegicus; assay: Intrinsic activity in rat isolated aorta; format: functional

**Q.** Which results are given for C/N=C(/S)C1=CC2(CCCCC2)Oc2ccc([N+](=O)[O-])cc21?
**A.** EC50 (Rattus norvegicus [1]): 0.112 nM; IA (Rattus norvegicus [2]): 77.6%

**Q.** CC(N/C(=N\C#N)Nc1ccncc1)C(C)(C)C (stereo unspecified) [PINACIDIL ANHYDROUS] was tested. Which IA (Rattus norvegicus [2]) did it give?
**A.** 91.9%

**Q.** Which results are given for C/N=C(/S)C1=CC2(Oc3ccc([N+](=O)[O-])cc31)C1CC3CC(C1)CC2C3 (stereo unspecified)?
**A.** EC50 (Rattus norvegicus [1]): 407 nM; IA (Rattus norvegicus [2]): 87.9%

**Q.** What does the source list for CCCCC1(C)C=C(/C(S)=N\C)c2cc([N+](=O)[O-])ccc2O1 (stereo unspecified)?
**A.** EC50 (Rattus norvegicus [1]): 40.7 nM; IA (Rattus norvegicus [2]): 66.5%

**Q.** Which EC50 (Rattus norvegicus [1]) does the source give for C/N=C(/S)C1=CC2(CCCC2)Oc2ccc([N+](=O)[O-])cc21 here?
**A.** 0.0251 nM

**Q.** What about the IA (Rattus norvegicus [2]) of the same compound?
**A.** 77.7%

**Q.** Which EC50 (Rattus norvegicus [1]) does the source give for C/N=C(/S)C1=CC2(CCC2)Oc2ccc([N+](=O)[O-])cc21 here?
**A.** 0.0209 nM

**Q.** What about the IA (Rattus norvegicus [2]) of the same compound?
**A.** 68.2%

**Q.** CCC1(CC)C=C(/C(S)=N\C)c2cc([N+](=O)[O-])ccc2O1 was tested. Which EC50 (Rattus norvegicus [1]) did it give?
**A.** 0.372 nM

**Q.** And the IA (Rattus norvegicus [2])?
**A.** 70.3%

**Q.** CCC1C=C(/C(S)=N\C)c2cc([N+](=O)[O-])ccc2O1 (stereo unspecified) was tested. Which EC50 (Rattus norvegicus [1]) did it give?
**A.** > 31600 nM

**Q.** With C/N=C(/S)C1c2cc([N+](=O)[O-])ccc2OC(C)(C)C1O (stereo in doubt; trans) as the compound, how does the “Log EC50” value (Rattus norvegicus [1]) read?
**A.** -6.58

**Q.** And the IA (Rattus norvegicus [2])?
**A.** 73.2%

**Q.** With CCC1(C)C=C(/C(S)=N\C)c2cc([N+](=O)[O-])ccc2O1 (stereo unspecified) as the compound, how does the EC50 (Rattus norvegicus [1]) read?
**A.** 0.182 nM

**Q.** What about the IA (Rattus norvegicus [2]) of the same compound?
**A.** 75.1%

**Q.** For C/N=C(/S)C1=CC(C(C)(C)C)Oc2ccc([N+](=O)[O-])cc21 (stereo unspecified), which EC50 (Rattus norvegicus [1]) is on record?
**A.** 0.398 nM

**Q.** What about the IA (Rattus norvegicus [2]) of the same compound?
**A.** 71.7%

**Q.** What does the source list for C/N=C(/S)C1c2cc([N+](=O)[O-])ccc2OC(C)(C)C1O (stereo in doubt; cis)?
**A.** Log EC50 (Rattus norvegicus [1]): -6.96; IA (Rattus norvegicus [2]): 57.9%

**Q.** C/N=C(/S)C1=CC(C)(C)Oc2ccc(C#N)cc21 was tested. Which IA (Rattus norvegicus [2]) did it give?
**A.** 89%

**Q.** How did the EC50 (Rattus norvegicus [1]) turn out when C/N=C(/S)C1=CC2(CCCCCC2)Oc2ccc([N+](=O)[O-])cc21 was run?
**A.** 47.9 nM

**Q.** And the IA (Rattus norvegicus [2])?
**A.** 61.5%

**Q.** With CCCC1(C)C=C(/C(S)=N\C)c2cc([N+](=O)[O-])ccc2O1 (stereo unspecified) as the compound, how does the EC50 (Rattus norvegicus [1]) read?
**A.** 0.017 nM

**Q.** And the IA (Rattus norvegicus [2])?
**A.** 62.6%

**Q.** C/N=C(/S)C1=CC(C)(C)Oc2ccc([N+](=O)[O-])cc21 was tested. Which IA (Rattus norvegicus [2]) did it give?
**A.** 63.5%

**Q.** For CC1(C)Oc2ccc(C#N)cc2[C@@H](N2CCCC2=O)[C@@H]1O [CROMAKALIM], which IA (Rattus norvegicus [2]) is on record?
**A.** 74.7%

**Q.** What does the source list for C/N=C(/S)C1=C(O)C(C)(C)Oc2ccc([N+](=O)[O-])cc21?
**A.** EC50 (Rattus norvegicus [1]): 1120 nM; IA (Rattus norvegicus [2]): 93.9%
